Measured values from patent US20110251135A1, “INHIBITORS OF PERITONEAL SEEDING OF CANCER CELLS” (University of Utah Research Foundation, priority 2008, published 2011).
Entries after “also recorded” stand apart in the source; their conditions may differ. Where a SMILES comes first, the peptide text is derived from it. The star is where a group is joined. Cbz = O=C(OCc1ccccc1)*

Tests used:
[1] = humans; after a single or multiple oral doses; read-out: Cmax blood levels; cited from earlier work
[2] = tested on: transiently suspended HT-29 cells; assay: Apoptosis of transiently suspended cells during readhesion (annexin V assay); type: cell-based, human; settings: various concentrations, 4 hours; compared with BAY 11-7085
Protocol: HT-29 cells that were either transiently suspended with trypsin-EDTA or adherent for three days, were treated at time zero with DMSO or 10-100 μM BAY 11-7085. The percent of apoptotic cells was determined using the annexin V flow cytometry assay and graphed versus the dose of BAY 11-7085. FIG. 4B are photographs showing DLD-1, FIG. 4C are photographs showing HCT-116, and FIG. 4D are photographs showing HT-29 cells that were transiently suspended in trypsin-EDTA and allowed to readhere to glass coverslips for 1-24 hours. The cells were fixed and immunostained with an NF-κB p65 subunit monoclonal antibody.
The transiently suspended cells were lysed and allowed to bind to DNA oligonucleotides, containing the NF-κB consensus binding site, that were immobilized to 96-well plates. NF-κB protein bound to the oligonucleotides was detected by an antibody to the p65 subunit that only recognized p65 that is bound to DNA. The positive control was HeLa cells that were stimulated with TNFα. A control was performed using excess free NF-κB oligonucleotides (Competitor). […] NF-κB binding activity was determined by the TransAM assay as in FIG. 5A. […] The data shown represent typical results of three separate experiments. […] An immunoblot for COX-2 was performed.
The percentage of apoptotic cells was determined using the annexin V assay. The data points represent the averages of three experiments; bars, +−.SE. E. DLD-1 and F. HT-29 cells were transduced with an adenovirus containing the IκB super-repressor construct. After 3 days, the cells were transiently suspended and allowed to readhere in the presence of subapoptotic concentrations of BAY 11-7085 or DMSO (vehicle) for 8 hours. The data are expressed as fractions of cells surviving compared with the controls (no adenovirus) and were quantitatively determined by staining the remaining adherent cells with crystal violet.
(§1) Single cell suspensions were plated at 100,000 cells per well in 24-well plates in media containing DMSO, BAY 11-7082, BAY 11-7085, or MG-132 for 8-24 hours in an incubator. Alternatively, DMSO, BAY 11-7082, BAY 11-7085, or MG-132 were added to cells that were confluent and adherent for several days. The nonadherent cells were aspirated off with the media and spun for 3 minutes at 2,000 rpm in 15 mL polypropylene tubes. The adherent cells were washed twice with PBS, dispersed in trypsin, and spun down for 3 minutes at 2,000 rpm in 15 mL polypropylene tubes. The nonadherent and adherent cells were resuspended in 1× binding buffer (10 mM HEPES/NaOH, pH 7.4, 140 mM NaCl, and 2.5 mM CaCl2) to a final concentration of 10^6 cells/mL. 100 μL of the cell solution were transferred to a 5 mL culture tube and incubated with 5 μL of annexin V-FITC-conjugated monoclonal antibody (Pharmingen) and 10 μl, of propidium iodide (from a 50 μg/mL stock solution made in PBS) in the dark at 25° C. for 15 minutes. 400 μL of binding buffer was added to each tube and the cells were analyzed by flow cytometry immediately. The percent of apoptosis was determined as the percent of annexin V-positive, propidium iodide-negative cells of the total cells counted.
Various concentrations of BAY 11-7085 were added to HT-29 cells that were transiently suspended in trypsin-PBS for approximately 15 minutes before replating. The transiently suspended cells were quickly allowed to readhere in order to prevent anoikis. Alternatively, BAY 11-7085 was added to adherent HT-29 cell monolayers.

HT-29 cells [3] = assay: Cleaved PARP immunoblot of adherent and nonadherent cells; type: cell-based, human; settings: 20 μM MG-132 for 8 h
Protocol: The cells were washed twice in ice cold PBS and then lysed in 4° C. lysis buffer (50 mM HEPES, 150 mM NaCl, 1.5 mM MgCl2, 1 mM EGTA, 100 mM NaF, 10 mM Na2PO4, 1 mM Na3VO4, 10% glycerol, 1% TRITON™ X-100, and 1 μg/mL each of aprotinin, leupeptin, chymostatin, pepstatin) and clarified at 12,000 rpm at 4° C. for 15 minutes. The lysates were normalized for total protein concentration. Aliquots of the lysates were then mixed 1:1 in sample buffer (125 mM Tris-HCl (pH 6.8), 20% glycerol, 4% sodium dodecyl sulfate, 2% β-mercaptoethanol, 10 μg/mL bromophenol blue) and boiled for 3 minutes. The samples were loaded onto SDS-PAGE gels (7.5 or 10% acrylamide). The proteins were transferred to nitrocellulose from the gels and incubated in blocking buffer (1% bovine serum albumin (Bio-Rad), 100 mM Tris-Cl (pH 7.4), 0.9% NaCl, 0.1% Nonidet) overnight at 4° C.
(§2) For immunodetection, the blocked blots were probed with primary antibody for 2 hours at 4° C. on a rocker. […] Alkaline phosphatase was detected by a colorimetric reaction using a BCIP (5-bromo-4-chloro-3-indolyl phosphate)/NBT (nitroblue tetrazolium) kit (Zymed).
It was confirmed in HT-29 cells that were treated with increasing concentrations of BAY 11-7085 for 24 h. After separating the HT-29 cells that remained adherent and those that became nonadherent after BAY 11-7085 treatment, the percentage of apoptotic cells was determined for each group. […]

adherent HT-29 cells = assay: Annexin V-FITC apoptosis assay, adherent cells; type: cell-based, human; settings: adherent HT-29; 24 hours; BAY compounds at doses up to 20, MG-132 20 μM
From the text: FIG. 3 is a group of graphs that show NF-κB inhibitors cause apoptosis of colon cancer cells. […] The data points represent the average percent of annexin V-positive, propidium iodide-negative cells (of the total cells counted) from triplicate experiments. The error bars represent the standard error of the means. […] The results shown are a graphic representation of individual flow cytometry results expressed as the percentage of cells that were annexin V-positive of those that excluded propidium iodide. […] An immunoblot of the lysates for cleaved PARP was performed. Each lane represents equal total protein concentrations. […] The cells were allowed to adhere to plastic dishes for 1 hour after which they were washed gently in PBS and stained with crystal violet. The crystal violet stained cells were solubilized in deoxycholate and the absorbance detected in a spectrophotometer at 590 nm. The adherent cells were expressed as a fraction of the controls. Each data point represents the average of triplicate experiments and the error bars the standard errors of the means.
The data points represent the means of triplicate experiments and the error bars the standard errors of the means. […] The percent of apoptotic cells was then determined by the annexin V assay. […] The results shown are typical of two separate experiments. […] Immunoblots were performed for c-IAP-2, TRAF-1, TRAF-2, and FLIP. All lanes contain equal total protein.
as §1

HCT-116 cells = assay: Cleaved PARP immunoblot of adherent and non-adherent cells; type: cell-based, human; settings: 20 μM MG-132 for 24 hours
From the text: FIG. 3 is a group of graphs that show NF-κB inhibitors cause apoptosis of colon cancer cells. […] The data points represent the average percent of annexin V-positive, propidium iodide-negative cells (of the total cells counted) from triplicate experiments. The error bars represent the standard error of the means. […] The results shown are a graphic representation of individual flow cytometry results expressed as the percentage of cells that were annexin V-positive of those that excluded propidium iodide. […] An immunoblot of the lysates for cleaved PARP was performed. Each lane represents equal total protein concentrations. […] The cells were allowed to adhere to plastic dishes for 1 hour after which they were washed gently in PBS and stained with crystal violet. The crystal violet stained cells were solubilized in deoxycholate and the absorbance detected in a spectrophotometer at 590 nm. The adherent cells were expressed as a fraction of the controls. Each data point represents the average of triplicate experiments and the error bars the standard errors of the means. […]
as §2

FLIP = FLIP expression in pancreatic and colon cancer cell lines; type: cell-based, human; settings: anisomycin 1.5 and 4 hours
Protocol: In order to determine the role of JNK activity in FLIP downregulation, pancreatic and colon cancer cell lines were treated with anisomycin for 1.5 and 4 hours.

JNK = JNK activity (phosphorylation of c-JUN) in colon and pancreatic cancer cell lines; type: cell-based, human
[4] = tested on: colon and pancreatic cancer cells; assay: Apoptosis of colon and pancreatic cancer cells during readhesion; type: cell-based, human
HT-29 cells [5] = assay: Cell survival and readhesion assay (crystal violet); type: cell-based, human; settings: HT-29 (overexpress PPARγ); 30 μM GW 9662
From the text: (§3) Untreated adherent monolayers (Control) and Jurkat cells treated with TNFα (Jurkat Control) served as controls. The cells were collected and analyzed for NF-κB activation in an ELISA (see Methods). […] The floating and readherent cells were collected and lysed. Aliquots of the cell lysates were used to generate cleaved PARP immunoblots. All lanes contain equal total protein concentrations and the actin blot served as a loading control. The blots shown are typical of duplicate experiments. […] The floating cells were washed away and the adherent cells were then fixed and stained with crystal violet. The cells were lysed in deoxycholate and the intensity of the staining quantified by spectrophotometry. The results are normalized to the controls.
(§4) FIGS. 13A-B show transiently suspended Su.86 (PPARγ-negative) and HT-29 (PPARγ-positive) cancer cells were allowed to readhere in the presence of various concentrations of ciglitazone for 8 hours. The cells were also incubated with or without the irreversible PPARγ inhibitor GW9662 during readhesion. The floating cells were washed away and the adherent cells were then fixed and stained with crystal violet. The cells were lysed in deoxycholate and the intensity of the staining quantified by spectrophotometry. The results are normalized to the controls. […]

Su.86 cells = assay: as above; type: cell-based, human; settings: Su.86 (lack PPARγ); 30 μM GW 9662
From the text: as §3, §4

RANK = assay: NF-κB activation in colon cancer cell lines incubated with soluble RANK; type: cell-based, human
From the text: Of other members of the TNF receptor superfamily, Receptor Activator of NF-κB (RANK) is highly expressed in the digestive tract. […] Thus, RANK appears to be important in the activation of NF-κB during colon cancer cell readhesion.

CCc1ccc(CCOc2ccc(CC3SC(=O)NC3=O)cc2)nc1 (stereo not drawn) [pioglitazone]
Cmax [1]: 2500 nM

CC(C)C[C@@H](C=O)NC(=O)[C@H](CC(C)C)NC(=O)[C@H](CC(C)C)NC(=O)OCc1ccccc1 [MG-132, N-[(phenylmethoxy)carbonyl]-leucyl-N-[(1S)-1-formyl-3-methylbutyl]-L-leucinamide] (Cbz-Leu-Leu-Leu-aldehyde)
induction of apoptosis of HT-29 cells during readhesion [2]: more potently induced apoptosis
cleaved PARP in cells that remained adherent (HT-29 cells [3]): only a small increase in cleaved PARP
cleaved PARP in nonadherent cells (HT-29 cells [3]): large increase in cleaved PARP
level of apoptosis (annexin V-positive, propidium iodide-negative cells) (adherent HT-29 cells): relatively greater for MG-132 than BAY 11-7085; also recorded: caused a greater increase in apoptosis
cleaved PARP in cells that remained adherent (HCT-116 cells): only a small increase in cleaved PARP
cleaved PARP in non-adherent cells (HCT-116 cells): large increase in cleaved PARP

COc1ccc(C[C@H]2NC[C@H](O)[C@H]2OC(C)=O)cc1 [anisomycin]
FLIP expression (FLIP): caused a decrease in FLIP expression
JNK activity (phosphorylation of c-JUN) (JNK): readily induced JNK activity
apoptosis during cell readhesion ([4]; colon and pancreatic cancer cell lines, anisomycin alone): not as effective as BAY 11-7085, anisomycin induced apoptosis
effect on pro-apoptotic activity of BAY 11-7085 ([4]; readhering colon and pancreatic cancer cells, anisomycin with BAY 11-7085): increased the pro-apoptotic activity of BAY 11-7085

O=C(Nc1ccccc1)c1cc([N+](=O)[O-])ccc1Cl [GW9662]
effect of GW 9662 on the efficacy of ciglitazone (HT-29 cells [5]): did not significantly affect the efficacy of ciglitazone
effect of GW 9662 on the efficacy of ciglitazone (Su.86 cells): did not significantly affect the efficacy of ciglitazone
effect of GW9662 on the pro-apoptotic activity of pioglitazone ([4]; cancer cell readhesion): failed to inhibit the pro-apoptotic activity of pioglitazone

B1: soluble RANK: soluble Receptor Activator of NF-κB, inhibits ligand-dependent RANK activation (protein, UniProt Q9Y6Q6 30-212, looked up)
extracellular domain: IAPPCTSEKHYEHLGRCCNKCEPGKYMSSKCTTTSDSVCLPCGPDEYLDSWNEEDKCLLHKVCDTGKALVAVVAGNSTTPRRCACTAGYHWSQDCECCRRNTECAPGLGAQHPLQLNKDTVCKPCLAGYFSDAFSSTDKCRPWTNCTFLGKRVEHHGTEKSDAVCSSSLPARKPPNEPHVYLP
modifications: extracellular domain
activation of NF-κB (RANK): significantly reduced the activation of NF-κB
